Data from US11352606B2, “Low oxygen tension enhances endothelial fate of human pluripotent stem cells” (THE JOHNS HOPKINS UNIVERSITY, priority 2014, dated 2022).

System: VEcad and CD31 mRNA expression in EVCs
Conditions: DPI days 3-6, 5% O2, after 12 days
Method: Real-time quantitative RT-PCR. Two-step reverse transcription polymerase chain reaction (RT-PCR) was performed on differentiated and undifferentiated (day 0) hPSCs as previously described in accordance with Applied Biosystems manufacturer instructions (Kusuma et al., The FASEB Journal. 2012; 26:4925-4936). For each primer set (CD34, KDR, CD56, VEcad, CD31, ephrinB2, EphB4, Nrp1, Nrp2), the comparative […] method (Applied Biosystems, Foster City, Calif.) was used to calculate the amplification differences between different samples. The values for experiments were averaged and graphed with standard deviations.
ROS detection and inhibition. Previously published protocols were followed to detect and inhibit ROS production (Abaci et al., American Journal of Physiology—Cell Physiology. 2011; 301:C431-C440). For ROS detection, the culture media was replaced with 10 μM 2′,7′-dichlorodihydrofluorescein diacetate (H2-DCFDA) (Invitrogen) in PBS and incubated for 30 min at 37° C. Samples were washed with PBS three times prior to imaging. For ROS inhibition, cells were treated with diphenyleneiodonium (DPI) (Sigma-Aldrich) at a concentration of 10 μM.
DPI-treated cells were maintained in 5% O2 conditions for the second six days of differentiation but without DPI.

[1] = RT-PCR normalized to control (atmospheric) EVCs

## c1ccc2c(c1)[I+]c1ccccc1-2 [DPI, diphenyleneiodonium]
  CD31 expression compared to EVCs differentiated in 5% O2 without DPI: significantly lower
  VEcad expression compared to EVCs differentiated in 5% O2 without DPI: significantly lower
[1]
  expression of CD31 compared to control EVCs: lower
  expression of VEcad compared to control EVCs: similar
